Data reported in patent publication EP1566447A1, “Glimepiride- and insulin-induced glycosylphosphatidylinositol-specific phospholipase C regulation” (priority 2004, dated 2005).
Entries after “also recorded” stand apart in the source; their conditions may differ.

Test system: rat adipocytes
Experiment: isoproterenol-induced lipolysis (glycerol release)
Type: cell-based
Procedure: Electroporation was performed as described in "Müller, G. et al., (2000) Mol. Cell. Biol. 20: 4708-4723". Lipolysis was determined as release of glycerol or fluorescent NBD-FA from prelabeled and isoproterenol-stimulated adipocytes as described in "Müller, G. et al., (2003) Biochimie 85: 1245-1256". Gce1 was detected by photolabeling of solubilized plasma membranes or hc/IcDIGs (10-50 µg protein) with 8-N3-[^32P]cAMP and subsequent phosphorimaging as described in "Müller, G. et al., (1994) Biochemistry 33: 12149-12159". 5'-Nuc, aP and AChE activities were measured according to "Eliakim, R. et al., (1990) Biochim. Biophys. Acta 1355: 293-302". Protein was determined using the BCA protein determination kit from Pierce (Rockford, IL) and BSA as calibration standard. SDS-PAGE was performed using precast gels (Novex, San Diego, CA; 10 % Bis-Tris resolving gel, morpholinopropanesulfonic acid-SDS running buffer). Lumiimages were evaluated on a Lumilmager using Lumilmager software (Roche Diagnostics). Phosphor- and fluorescence images were processed and quantified using the Storm 860 Phosphorlmager system (Molecular Dynamics, Gelsenkirchen, Germany). Figures were constructed using the Adobe Photoshop software (Adobe Systems, Mountain View, CA).
Fig. 8: Effect of GPI-2350 on the glimepiride/insulin-induced metabolic activity. Isolated rat adipocytes were treated (5 min, 37°C) without or with GPI-2350 (Panel A, 50 µM; Panel B, increasing conc.; Panel C, 5 µM, 50 µM) and then incubated (15 min, 37°C) in the absence or presence of insulin (Ins, 10 nM) or glimepiride (Gli, 20 µM or increasing conc.) as indicated. The adipocytes were then assayed for glucose transport and isoproterenol-induced lipolysis. The activity is given relative to the absence of GPI-2350 in the control reaction (Panels A, basal) or in the insulin- and glimepiride-stimulated state (Panels B and C, set at 100). Means ± SD of at least 5 independent cell incubations with activity measurements in triplicate each are given.

CCCCCCCCCCCCP1(=O)O[C@@H]2[C@H](O)[C@@H](O)[C@H](O)[C@@H](O)[C@@H]2O1 (mixture of isomers) [GPI-2350, myo-inositol-1,2-cyclo-dodecylphosphonic acid] was tested, and the “effect on inhibition of lipolysis in response to glimepiride” value (50 µM) was “almost complete blockade; also recorded: lower than control values”, the IC50 (Rattus norvegicus, Adipocyte) was 2 to 5 µM and the inhibition at 50 µM (Rattus norvegicus, Adipocyte, 50 µM, insulin 10 nM, read-out: reduction of insulin inhibition of isoproterenol-induced lipolysis) was no more than 33%.
